Results: patent US20200046737A1, “METHODS FOR TREATING CANCER, AND COMPOSITIONS THEREFOR” (Notable Labs, Inc., priority 2018, published 2020)

Columns and labels:
PD-L1 = assay: Ex vivo flow cytometry priming-tuning assay, PD-L1 expression on AML patient samples; format: cell-based, human; details: FIG. 3, three-day incubation
CD15 = assay: Ex vivo flow cytometry priming assay, CD15 surface marker expression on AML patient samples; format: cell-based, human; details: FIG. 3, three-day incubation
CD38 [1] = assay: 72-hour ex vivo assay, CD38 upregulation in MDS and AML cancer patient samples; format: cell-based, human; details: subset of MDS and AML cancer patient samples
Excerpt: (§1) The ex vivo detection of CD38 upregulation using the 72-hour ex vivo assay was clinically validated by trial sites, which compared CD38 expression on leukemic blasts before enrollment and at the beginning of cycle two on SY-1425.

CD38 [2] = assay: Clinical validation by trial sites, CD38 expression on leukemic blasts of patients on drug; format: in vivo, human; details: before enrollment versus beginning of cycle two
Excerpt: as §1

CD126 = assay: Ex vivo flow cytometry priming assay, CD126 surface marker expression on AML patient samples; format: cell-based, human; details: AML Patient 3
Method: (§2) 12 primary AML patient samples were assayed for priming response using a High-Throughput Phenotypic Screening Platform. Samples were treated with 70 priming compounds (either FDA approved compounds or compounds in clinical development). […] This process was repeated on bone marrow aspirate and peripheral blood from 3 healthy donors.

CD24 = assay: Ex vivo flow cytometry priming assay, CD24 surface marker expression on AML patient samples; format: cell-based, human; details: AML Patient 3
Method: as §2

Cc1c(-c2ccc(-c3ccccc3F)cc2)nc2ccc(F)cc2c1C(=O)O [Brequinar Sodium]
PD-L1 expression (PD-L1): increase | CD15 expression (CD15): increase

CC1(C)CCC(C)(C)c2cc(NC(=O)c3ccc(C(=O)O)cc3)ccc21 [SY-1425]
CD38 upregulation after exposure (CD38 [1]): upregulation | CD38 expression on leukemic blasts (CD38 [2]): upregulated

CC1=C(/C=C/C(C)=C/C=C/C(C)=C/C(=O)O)C(C)(C)CCC1 [Tretinoin]
expression of CD126 (CD126): little effect | expression of CD24 (CD24): little effect
